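Briefly, cells in 96-well plates were exposed to five compound concentrations for 48 h, and endpoints were estimated by linear interpolation. GI50 is the concentration that inhibits growth by half.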 Activity calls are given as the source filed them. Rule as the data show it: active = GI50 up to about 1.1 µM and inactive = higher.
Assays:
Assay in all cases: NCI-60 cell line screen, 48 h
[1] = test system: M19-MEL
[2] = test system: HCT-116
[3] = test system: UACC-62
[4] = test system: DMS-273
[5] = test system: 786-0
[6] = test system: SN12C
[7] = test system: SK-MEL-28
[8] = test system: Malme-3M
[9] = test system: DLD-1
[10] = test system: OVCAR-4
[11] = test system: SK-OV-3
[12] = test system: HOP-92
[13] = test system: SF-539
[14] = test system: NCI-H23
[15] = test system: UO-31
[16] = test system: A498
[17] = test system: IGROV-1
[18] = test system: DMS-114
[19] = test system: SR
[20] = test system: K562
[21] = test system: LXFL 529
[22] = test system: NCI-H522
[23] = test system: HL-60
[24] = test system: SK-MEL-2
[25] = test system: CCRF-CEM
[26] = test system: SF-268
[27] = test system: XF498
[28] = test system: SNB-75
[29] = test system: HCC 2998
[30] = test system: CAKI-1
[31] = test system: SNB-78
[32] = test system: NCI-H226
[33] = test system: RPMI-8226
[34] = test system: M14
[35] = test system: MOLT-4
[36] = test system: HOP-62
[37] = test system: NCI-H460
[38] = test system: COLO 205
[39] = test system: A549
[40] = test system: ACHN
[41] = test system: SK-MEL-5
[42] = test system: LOX IMVI
[43] = test system: SF-295
[44] = test system: SW-620
[45] = test system: UACC-257
[46] = test system: OVCAR-3
[47] = test system: OVCAR-5
[48] = test system: KM12
[49] = test system: TK-10
[50] = test system: HOP-18
[51] = test system: U-251
[52] = test system: HCT-15
[53] = test system: EKVX
[54] = test system: OVCAR-8
[55] = test system: HT-29
[56] = test system: RXF 393
[57] = test system: SNB-19
[58] = test system: KM-20L2

Structure (SMILES): Cc1ncc(CI)c(CI)c1O
- GI50 [1]: > 100 µM (inactive)
- GI50 [2]: 15.6 µM (inactive)
- GI50 [3]: > 100 µM (inactive)
- GI50 [4]: 14.8 µM (inactive)
- GI50 [5]: 16.9 µM (inactive)
- GI50 [6]: 17.2 µM (inactive)
- GI50 [7]: 18 µM (inactive)
- GI50 [8]: 17.5 µM (inactive)
- GI50 [9]: 24.7 µM (inactive)
- GI50 [10]: > 100 µM (inactive)
- GI50 [11]: > 100 µM (inactive)
- GI50 [12]: > 100 µM (inactive)
- GI50 [13]: 23.4 µM (inactive)
- GI50 [14]: 19.4 µM (inactive)
- GI50 [15]: 2.5 µM (inactive)
- GI50 [16]: > 100 µM (inactive)
- GI50 [17]: > 100 µM (inactive)
- GI50 [18]: > 100 µM (inactive)
- GI50 [19]: 12.6 µM (inactive)
- GI50 [20]: 5.85 µM (inactive)
- GI50 [21]: > 100 µM (inactive)
- GI50 [22]: 3.34 µM (inactive)
- GI50 [23]: 2.22 µM (inactive)
- GI50 [24]: 21.3 µM (inactive)
- GI50 [25]: 3.93 µM (inactive)
- GI50 [26]: 24.3 µM (inactive)
- GI50 [27]: 20.1 µM (inactive)
- GI50 [28]: 16.8 µM (inactive)
- GI50 [29]: 18.8 µM (inactive)
- GI50 [30]: 63.2 µM (inactive)
- GI50 [31]: > 100 µM (inactive)
- GI50 [32]: 2.39 µM (inactive)
- GI50 [33]: 6.7 µM (inactive)
- GI50 [34]: > 100 µM (inactive)
- GI50 [35]: 12.7 µM (inactive)
- GI50 [36]: 17.2 µM (inactive)
- GI50 [37]: > 100 µM (inactive)
- GI50 [38]: > 100 µM (inactive)

Structure (SMILES): Nc1c(-c2nc3ccccc3[nH]2)sc(=S)n1-c1ccc(Cl)cc1
- GI50 [1]: 32.4 µM (inactive)
- GI50 [3]: 16.1 µM (inactive)
- GI50 [4]: 19.8 µM (inactive)
- GI50 [5]: 19.9 µM (inactive)
- GI50 [39]: 23.5 µM (inactive)
- GI50 [40]: 17.7 µM (inactive)
- GI50 [6]: 21.4 µM (inactive)
- GI50 [7]: 33.7 µM (inactive)
- GI50 [41]: 26 µM (inactive)
- GI50 [8]: 36.2 µM (inactive)
- GI50 [42]: 26.1 µM (inactive)
- GI50 [9]: 48.2 µM (inactive)
- GI50 [43]: 22.9 µM (inactive)
- GI50 [10]: 20 µM (inactive)
- GI50 [44]: 39.5 µM (inactive)
- GI50 [45]: 25.5 µM (inactive)
- GI50 [11]: 34.3 µM (inactive)
- GI50 [13]: 20.1 µM (inactive)
- GI50 [14]: 36.6 µM (inactive)
- GI50 [15]: 29.6 µM (inactive)
- GI50 [16]: 31 µM (inactive)
- GI50 [17]: 28.6 µM (inactive)
- GI50 [18]: 18.6 µM (inactive)
- GI50 [46]: 18.5 µM (inactive)
- GI50 [47]: > 100 µM (inactive)
- GI50 [20]: 32.8 µM (inactive)
- GI50 [48]: 28.6 µM (inactive)
- GI50 [22]: 22.4 µM (inactive)
- GI50 [23]: > 100 µM (inactive)
- GI50 [24]: 25.6 µM (inactive)
- GI50 [49]: 30 µM (inactive)
- GI50 [50]: 20.8 µM (inactive)
- GI50 [51]: 23.7 µM (inactive)
- GI50 [25]: 41.1 µM (inactive)
- GI50 [52]: 25.4 µM
- GI50 [26]: 25.3 µM (inactive)
- GI50 [27]: 35.7 µM (inactive)
- GI50 [28]: 27.7 µM (inactive)
- GI50 [29]: 21.8 µM (inactive)
- GI50 [30]: 33 µM (inactive)
- GI50 [53]: 35.8 µM (inactive)
- GI50 [31]: 30.4 µM (inactive)
- GI50 [54]: 23.8 µM (inactive)
- GI50 [32]: 26.5 µM (inactive)
- GI50 [33]: 28.1 µM (inactive)
- GI50 [34]: 30.3 µM (inactive)
- GI50 [55]: 19.7 µM (inactive)
- GI50 [35]: 31.1 µM (inactive)
- GI50 [36]: 25.6 µM (inactive)
- GI50 [56]: 23.8 µM (inactive)
- GI50 [38]: 35.3 µM (inactive)
- GI50 [57]: 25.7 µM (inactive)

Structure (SMILES): C[C@@H](N[C@H]1CCC[C@@H]1O)c1ccccc1.C[C@@H](N[C@H]1CCC[C@H]1O)c1ccccc1
- GI50 [1]: > 100 µM (inactive)
- GI50 [2]: 34.9 µM (inactive)
- GI50 [3]: 75 µM (inactive)
- GI50 [4]: > 100 µM (inactive)
- GI50 [5]: 70.1 µM (inactive)
- GI50 [39]: > 100 µM (inactive)
- GI50 [40]: > 100 µM (inactive)
- GI50 [6]: > 100 µM (inactive)
- GI50 [7]: 58.3 µM (inactive)
- GI50 [41]: 57.7 µM (inactive)
- GI50 [8]: > 100 µM (inactive)
- GI50 [42]: 34.4 µM (inactive)
- GI50 [43]: 40.4 µM (inactive)
- GI50 [10]: > 100 µM (inactive)
- GI50 [58]: 38.2 µM (inactive)
- GI50 [44]: 61.4 µM (inactive)
- GI50 [45]: > 100 µM (inactive)
- GI50 [11]: > 100 µM (inactive)
- GI50 [12]: 30.7 µM (inactive)
- GI50 [13]: > 100 µM (inactive)
- GI50 [14]: > 100 µM (inactive)
- GI50 [15]: 50.5 µM (inactive)
- GI50 [16]: > 100 µM (inactive)
- GI50 [17]: > 100 µM (inactive)
- GI50 [18]: > 100 µM (inactive)
- GI50 [46]: > 100 µM (inactive)
- GI50 [20]: 44.9 µM (inactive)
- GI50 [48]: 41.4 µM (inactive)
- GI50 [22]: > 100 µM (inactive)
- GI50 [23]: 43.6 µM (inactive)
- GI50 [24]: > 100 µM (inactive)
- GI50 [49]: 90.4 µM (inactive)
- GI50 [50]: 48.8 µM (inactive)
- GI50 [51]: 48.1 µM (inactive)
- GI50 [25]: 89.9 µM (inactive)
- GI50 [52]: > 100 µM
- GI50 [26]: > 100 µM (inactive)
- GI50 [27]: > 100 µM (inactive)
- GI50 [28]: > 100 µM (inactive)
- GI50 [29]: 65.8 µM (inactive)
- GI50 [53]: > 100 µM (inactive)
- GI50 [31]: > 100 µM (inactive)
- GI50 [54]: > 100 µM (inactive)
- GI50 [32]: 19.9 µM (inactive)
- GI50 [33]: 53.7 µM (inactive)
- GI50 [34]: 49 µM (inactive)
- GI50 [55]: 38.1 µM (inactive)
- GI50 [35]: 51.5 µM (inactive)
- GI50 [36]: 51.9 µM (inactive)
- GI50 [37]: 37.8 µM (inactive)
- GI50 [56]: > 100 µM (inactive)
- GI50 [38]: 75.7 µM (inactive)
- GI50 [57]: 71.8 µM (inactive)

— ChEMBL document CHEMBL1201862, “PubChem BioAssay data set” (2004)
